Results: patent US20240018157A1, “CYCLIC COMPOUNDS AND METHODS OF USING SAME” (Schrödinger, Inc., priority 2019, published 2024)

Legend:
[1] = molecular target: T1, full-length MALT1 protein His-MALT1(1-824) (Homo sapiens (Human), UniProt Q9UDY8); experiment: MALT1 protease assay, Assay 1 (2 nM MALT1, Ac-LRSR-AMC substrate); type: biochemical; conditions: 2 nM MALT1, 50 μM Ac-LRSR-AMC, 2 h pre-incubation, 8 hr incubation at RT
Description: MALT1 protease activity was assessed in an in vitro assay using a tetrapeptide as substrate and full-length MALT1 protein His-MALT1(1-824) purified from baculovirus-infected insect cells.
The final assay buffer includes 1 nM (Assay 2) or 2 nM (Assay 1) of MALT1 full-length protein, 50 μM Ac-LRSR-AMC substrate, 50 mM Tris pH 7.5, 600 mM Sodium Citrate, 1 mM DTT, 1 mM EDTA, and 0.05% BSA in 384-well plate format using black microtiter square well plates (Optiplate 384-F, Perkin Elmer).
Test compounds were dissolved in 100% DMSO at stock of 10 mM, with final DMSO concentration 0.1%. Test compounds were pre-incubated with MALT1 protein for 2 h at room temperature. Substrate was added after the pre-incubation and fluorescence signal was measured using Envision at excitation 355 nm and emission 460 nm after 8 hr incubation at RT. Increase in the assay signal was linear over this period and proportional with increase in the enzyme content.
The fluorescence units were transformed to percentage of remaining activity by using the high control (HC, median of fluorescence signal from wells containing MALT1 protein, substrate, and DMSO) and low control (LC, median of fluorescence signal from wells with substrate only) with the formula below: […]
IC50 and Hill coefficient were obtained using Graph Pad Prism (Graph Pad software, Inc, USA) with non-linear regression analysis.

[2] = tested on: IL10 secretion, OCI-LY10 cells; experiment: Human IL10 secretion assay, Assay 2 (Meso Scale Discovery); type: cell-based; conditions: 24 h incubation, MSD, read-out: IL-10 Secretion IC50 [nM] Assay 2
Description: IL10 is one of the cytokines that are regulated via activation of NF-kB signaling. For example, in ABC-DLBCL cell lines, the activated NF-kB signaling leads to increased IL10 secretion. Inhibition of NF-kB signaling has been shown leading to decreased IL10 secretion.
Assay 2: OCI-LY10 cells were seeded in IMEM supplemented with 20% fetal bovine serum at 4.8×10^5 cells per 160 μL per well in 96-well V-bottom cell culture plates (coming, 3894), treated with 120 nL of 3-fold serial compound dilutions, starting at 4 mM. The final vehicle concentration was 0.075% DMSO in all wells. After a 24 h incubation, human IL-10 pre-coated plates (Meso Scale Discovery) were washed 3 times with PBST, and 50 μL culture medium was aspirated into the MSD plate and incubated at 4° C. overnight. The supernatant was then discarded and the wells were washed 3 times with PBST. SULFO-TAG Anti-human IL-10 Antibody (50×) was diluted 50 fold according to the Meso Scale Protocol, then 25 μL of SULFO-TAG Anti-human IL-10 Antibody (1×) was added. After 2 h of incubation at RT, the supernatant was discarded and the well was washed 3 times with PBST. 2× read buffer was added and the signal was read on an MSD Sector S600. The effect of a particular compound on IL10 secretion is shown relative to the effect of DMSO; set as 100%. IC50 values (nM) were determined using 4-parametric curve-fitting.

[3] = tested on: IL10 secretion, OCI-LY10 cells; experiment: Human IL10 secretion assay, Assay 1 (HTRF); type: cell-based; conditions: 24 h incubation, read-out: IL-10 Secretion IC50 [nM] Assay 1
Method in brief: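 OCI-LY10 cells (3×10^5/well, IMEM with 20% FBS) were treated with 3-fold serial compound dilutions from a 10 mM stock, 0.1% DMSO final, for 24 h. Secreted IL10 in medium was quantified by HTRF, normalised to DMSO-treated and no-cell controls, and IC50 (nM) derived by 4-parameter fit.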

[4] = molecular target: T1, full-length MALT1 protein His-MALT1(1-824); experiment: MALT1 protease assay, Assay 2 (1 nM MALT1, Ac-LRSR-AMC substrate); type: biochemical; conditions: 1 nM MALT1, 50 μM Ac-LRSR-AMC, 2 h pre-incubation, 8 hr incubation at RT
Method in brief: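 His-MALT1(1-824) from baculovirus-infected insect cells at 1 nM, preincubated 2 h at RT with compound (0.1% DMSO), then 50 μM Ac-LRSR-AMC in 50 mM Tris pH 7.5, 600 mM sodium citrate, 1 mM DTT, 1 mM EDTA, 0.05% BSA. Fluorescence (ex 355/em 460 nm) after 8 h at RT, normalized to enzyme and substrate-only controls. IC50 and Hill coefficient by non-linear regression.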

T1 sequence (Q9UDY8 whole entry): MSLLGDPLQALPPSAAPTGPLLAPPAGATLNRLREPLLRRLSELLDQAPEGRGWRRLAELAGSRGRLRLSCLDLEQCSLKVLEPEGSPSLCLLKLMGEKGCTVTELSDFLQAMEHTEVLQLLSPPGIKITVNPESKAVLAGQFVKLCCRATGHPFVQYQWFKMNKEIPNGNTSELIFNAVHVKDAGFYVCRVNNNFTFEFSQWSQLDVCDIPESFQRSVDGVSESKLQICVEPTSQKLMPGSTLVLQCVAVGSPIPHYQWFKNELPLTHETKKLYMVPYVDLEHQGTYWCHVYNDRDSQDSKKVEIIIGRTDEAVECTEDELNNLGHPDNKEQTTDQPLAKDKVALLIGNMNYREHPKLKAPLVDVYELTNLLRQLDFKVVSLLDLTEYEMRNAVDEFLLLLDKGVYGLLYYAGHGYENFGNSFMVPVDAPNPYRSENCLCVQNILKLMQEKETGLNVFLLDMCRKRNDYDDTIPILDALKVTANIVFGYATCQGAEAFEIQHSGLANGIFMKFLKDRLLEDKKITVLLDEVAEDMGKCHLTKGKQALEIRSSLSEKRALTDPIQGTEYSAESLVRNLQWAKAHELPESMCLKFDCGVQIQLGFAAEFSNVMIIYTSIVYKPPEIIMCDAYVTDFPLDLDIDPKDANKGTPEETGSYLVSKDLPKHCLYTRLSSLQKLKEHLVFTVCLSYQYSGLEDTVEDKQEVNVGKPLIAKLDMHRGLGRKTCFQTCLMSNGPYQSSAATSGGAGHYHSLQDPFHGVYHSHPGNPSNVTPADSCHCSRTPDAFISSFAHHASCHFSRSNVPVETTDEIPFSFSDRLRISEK

C[C@@]1(C(F)(F)F)CN(C(=O)Nc2cnc(N3CCCC3)c(Cl)c2)c2cnc3cc(Cl)nn3c21 [compound 23, (R)-2-chloro-N-(5-chloro-6-(pyrrolidin-1-yl)pyridin-3-yl)-8-methyl-8-(trifluoromethyl)-7,8-dihydro-6H-pyrazolo[1,5-a]pyrrolo[2,3-e]pyrimidine-6-carboxamide]
IC50 [1]: 10 to 100 nM

CNc1ncc(NC(=O)N2C[C@@](C)(C(F)(F)F)c3c2cnc2cc(Cl)nn32)cc1Cl [compound 51, (R)-2-chloro-N-(5-chloro-6-(methylamino)pyridin-3-yl)-8-methyl-8-(trifluoromethyl)-7,8-dihydro-6H-pyrazolo[1,5-a]pyrrolo[2,3-e]pyrimidine-6-carboxamide]
IC50 [1]: 10 to 100 nM

CC1(C(F)(F)F)CN(C(=O)Nc2cnc(-n3nccn3)c(Cl)c2)c2cnc3cc(C#N)nn3c21 (stereo not drawn) [compound 17, N-[5-chloro-6-(triazol-2-yl)-3-pyridyl]-11-cyano-3-methyl-3-(trifluoromethyl)-1,5,8,12-tetrazatricyclo[7.3.0.02,6]dodeca-2(6),7,9,11-tetraene-5-carboxamide]
IC50 [1]: 10 to 100 nM

Cc1cc(NC(=O)N2C[C@@](C)(C(F)(F)F)c3c2cnc2cc(Cl)nn32)cnc1-n1ccnn1 [compound 30, (R)-2-chloro-8-methyl-N-(5-methyl-6-(1H-1,2,3-triazol-1-yl)pyridin-3-yl)-8-(trifluoromethyl)-7,8-dihydro-6H-pyrazolo[1,5-a]pyrrolo[2,3-e]pyrimidine-6-carboxamide]
IC50 [1]: 10 to 100 nM

CN1CC[C@H](Oc2cc(NC(=O)N3C[C@@](C)(C(F)(F)F)c4c3cnc3cc(Cl)nn43)cc(C(F)F)n2)C1 [compound 111, (R)-2-chloro-N-(2-(difluoromethyl)-6-(((S)-1-methylpyrrolidin-3-yl)oxy)pyridin-4-yl)-8-methyl-8-(trifluoromethyl)-7,8-dihydro-6H-pyrazolo[1,5-a]pyrrolo[2,3-e]pyrimidine-6-carboxamide]
IC50 [2]: 10 to 100 nM
IC50 [3]: 10 to 100 nM
IC50 [4]: 10 to 100 nM

Cn1cnc(-c2ncc(NC(=O)N3C[C@@](C)(C(F)(F)F)c4c3cnc3cc(Cl)nn43)cc2Cl)c1 [compound 28, (R)-2-chloro-N-(5-chloro-6-(1-methyl-1H-imidazol-4-yl)pyridin-3-yl)-8-methyl-8-(trifluoromethyl)-7,8-dihydro-6H-pyrazolo[1,5-a]pyrrolo[2,3-e]pyrimidine-6-carboxamide]
IC50 [1]: 10 to 100 nM

C[C@@]1(C(F)(F)F)CN(C(=O)Nc2cnc(-n3cc(C#N)cn3)c(Cl)c2)c2cnc3cc(Cl)nn3c21 [compound 22, (R)-2-chloro-N-(5-chloro-6-(4-cyano-1H-pyrazol-1-yl)pyridin-3-yl)-8-methyl-8-(trifluoromethyl)-7,8-dihydro-6H-pyrazolo[1,5-a]pyrrolo[2,3-e]pyrimidine-6-carboxamide]
IC50 [1]: 10 to 100 nM

CC(O)c1cnnn1-c1ncc(NC(=O)N2C[C@@](C)(C(F)(F)F)c3c2cnc2cc(F)nn32)cc1C(F)F (stereo partly drawn) [compound 188, (8R)-N-(5-(difluoromethyl)-6-(5-(1-hydroxyethyl)-1H-1,2,3-triazol-1-yl)pyridin-3-yl)-2-fluoro-8-methyl-8-(trifluoromethyl)-7,8-dihydro-6H-pyrazolo[1,5-a]pyrrolo[2,3-e]pyrimidine-6-carboxamide]
IC50 [2]: 10 to 100 nM
IC50 [3]: 100 to 1000 nM
IC50 [4]: 10 to 100 nM

CN(C)C(=O)c1ncc(NC(=O)N2C[C@@](C)(C(F)(F)F)c3c2cnc2cc(Cl)nn32)cc1Cl [compound 123, (R)-2-chloro-N-(5-chloro-6-(dimethylcarbamoyl)pyridin-3-yl)-8-methyl-8-(trifluoromethyl)-7,8-dihydro-6H-pyrazolo[1,5-a]pyrrolo[2,3-e]pyrimidine-6-carboxamide]
IC50 [2]: 10 to 100 nM
IC50 [3]: 10 to 100 nM
IC50 [4]: 10 to 100 nM

Cc1cn2ncc3c(c2n1)C(C)(C)CN3C(=O)Nc1cnc(-n2nccn2)c(Cl)c1 [compound 134, N-(5-chloro-6-(2H-1,2,3-triazol-2-yl)pyridin-3-yl)-2,9,9-trimethyl-8,9-dihydro-7H-imidazo[1,2-b]pyrrolo[3,2-d]pyridazine-7-carboxamide]
IC50 [2]: 10 to 100 nM
IC50 [3]: 100 to 1000 nM
IC50 [4]: 10 to 100 nM
